Data on 94 molecules can be found in PubChem BioAssay AID977607 (Broad Institute, 2014).

Where “and” joins values, the source holds several entries; their conditions need not be identical. Equal values may be shown once. Calls of active or inactive are those of the source.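 Rule for the calls: active = curve reaches 40% activation over neutral controls at an AC40 no higher than the top valid tested concentration; inconclusive = no clear call, values can overlap the other calls; inactive = signal moving opposite to the expected increase, and the rest.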 A value given as a limit tells only on which side of the number the result lay.

The experiment concerns INS-1E GLuc insulin secretion reporter, luminescence, 2-3 h. Kind of experiment: GLuc-reported insulin release enhancers, glucose-stimulated beta cells – cell-based, INS-1E, Gaussia luciferase, luminescence, cherry-pick, set 2, dose response (AID 977607).
For the molecule `c1ccc(-c2nnc3ccc(N4CCC5(CC4)OCCO5)nn23)cc1`, the AC40 is > 35 µM (inactive).

Consider `Clc1ccc(-c2ccnc(Oc3cc(Cl)ccc3Cl)n2)cc1`, for which the AC40 is 7.53 µM.

Take `Cc1cc(Nc2ccc(Cl)cc2)nc(NCc2ccccc2)n1`: the AC40 is 9.24 µM.

Turning to `CCc1ccc(-c2c(C)sc(NC(=O)C3CCC3)c2C#N)cc1`, the AC40 was 5.78 µM.

On to `O=c1c2ccccc2sn1-c1ccccc1F`, for which the AC40 is 3.87 µM.

`CONc1nc(NC(C)(C)C)nc(OCC#N)n1`: the AC40 is > 35 µM (inactive).

For `O=C(Cn1ncc(Cl)c(Cl)c1=O)Nc1ccc2c(c1)OCO2`, the AC40 is 12 µM.

For the molecule `C=CCOc1ccc(-c2nc3c(c(=O)[nH]c(=O)n3CCCC)n2C)cc1Br`, the AC40 is 11.1 µM.

For `CCn1nc(C)c(NC(=O)c2cnn3c(C(F)F)cc(-c4ccccc4)nc23)c1C`, the AC40 is 3.84 µM.

Regarding `COc1ccc(OC)c(-c2nnc3n2N=C(c2ccc(OC)c(OC)c2)CS3)c1`, the AC40 was 0.564 µM.

With `c1ccc(Cn2nnc3c(N4CCc5ccccc54)ncnc32)cc1`, the AC40 is 5.06 µM.

In the case of `COc1ccc2nc3ccccc3nc2c1NC(=O)c1ccc(Cl)cc1Cl`, the AC40 was 6.29 µM.

Consider `N#Cc1cccc(-c2ccc([C@@H]3[C@@H]4CN(S(=O)(=O)c5ccc(-c6ccccc6)cc5)C[C@H]3N4)cc2)c1`, for which the AC40 was 3.49 µM.

Turning to `Cc1ccc(-n2nc3ccc(NC(=O)c4ccco4)cc3n2)cc1`, the AC40 was 10.8 µM.

In the case of `O=c1c2ccccc2sn1-c1ccccc1`, the AC40 is 3.25 µM.

Turning to `COc1ccc(Cn2c(=O)c3[nH]cnc3n(-c3ccccc3C)c2=O)cc1`, the AC40 was 10.4 µM.

Take `COC(=O)c1ccc(OC)c(OC2CCCC2)c1`: the AC40 was 0.254 µM.

Take `COc1ccccc1C(=O)NC(=S)Nc1ccc2[nH]c(=O)[nH]c2c1`: the AC40 is 25.1 µM.

On to `COc1cc2sc3ccc(C#Cc4ccc(N)cc4)cc3c(=O)c2cc1OC`, for which the AC40 is 33.4 µM.

`OC(c1ccccc1)(c1ccccc1)C1CCN(CCCOc2ccc(-c3ccsc3)cc2)CC1`: the AC40 is 8.81 µM.

`CCCCCc1cc(=O)oc2c(C(CCN3CCCC(C)C3)c3ccc(OC)cc3)c(OC)cc(OC)c12` (centres undefined): the AC40 is 12 µM.

For the molecule `Clc1ccc(-c2ccnc(Oc3ccc4ccccc4c3)n2)cc1`, the AC40 is 8.45 µM.

On to `CCOC(=O)c1cn(-c2ccccc2)nc1-c1ccncc1`, for which the AC40 was 10.5 µM.

`Cc1ccc(NC(=O)c2ccc(COc3ccc4c(c3)CCC4)cc2)c(C)c1`: the AC40 was 1.27 µM.

On to `COc1ccc(-c2ccc3c(N)c(C(=O)c4ccc(OC)c(OC)c4)sc3n2)cc1`, for which the AC40 was 5.83 µM.

Consider `CC(C)Nc1nc(Cl)nc(NC(C)C)n1`, for which the AC40 is 11.6 µM.

On to `OC(c1ccccc1)(c1ccccc1)C1CCN(CCCOc2ccc(-c3ccc(F)cc3F)cc2)CC1`, for which the AC40 was 3.89 µM.

On to `CCCCc1c(-c2ccccc2OC)ncn1Cc1ccccc1C`, for which the AC40 is 10.4 µM.

Regarding `CCN(Cc1ccccc1)S(=O)(=O)c1ccc(C(=O)N(CCCN(C)C)c2nc3cc(C)cc(C)c3s2)cc1`, the AC40 is 17.4 µM.

For the molecule `Cc1cccc(S(=O)(=O)N2CCCCN3[C@@H](CO)[C@@H](c4ccc(C#CC(C)C)cc4)[C@@H]3C2)c1`, the AC40 was 18.2 µM.

In the case of `CN(C)S(=O)(=O)c1cccc(-n2sc3ccccc3c2=O)c1`, the AC40 was 4.6 µM.

For `COc1ccc(-c2nnn(Cc3nc(N)nc(N4CCOCC4)n3)n2)cc1OC`, the AC40 was 1.67 µM.

Regarding `CC(C)Sc1nc2c(c(=O)[nH]c(=O)n2C)n1Cc1ccc(Cl)cc1`, the AC40 was 19.9 µM.

Take `Cc1ccc(Oc2ncc(-c3ccc(Cl)cc3)cn2)cc1`: the AC40 was 6.86 µM.

For `CCCCc1c(Cc2cccc(F)c2)ncn1CCc1ccccc1OC`, the AC40 was 12.3 µM.

As for `CN(C)CCNC(=O)c1cccc(-c2cc(NC=O)c3ncc(-c4cccc(C(F)(F)F)c4)n3c2)c1`, the AC40 is 24.4 µM.

`CCOC(=O)c1c(-c2ccc(-c3ccccc3)cc2)csc1NC(=O)CNCCN(C)C`: the AC40 is 8.58 µM.

Consider `CC(=O)c1nn(-c2ccc(Br)cc2)cc1C(=O)c1ccccc1`, for which the AC40 was 8.45 µM.

As to `COc1ccc(C2CC(=O)Nc3sc(=N)c4c(N)c(C#N)c(N)nc4c32)cc1OC` (centres undefined), the AC40 is 6.1 µM.

For `CC(=O)Nc1cc(-c2cccc(C(=O)NCCN(C)C)c2)cn2c(-c3cccc(C(F)(F)F)c3)cnc12`, the AC40 was 14.7 µM.

Take `COc1cccc(-c2cc(C(=O)Nc3cc(C)on3)no2)c1`: the AC40 was 19.2 µM.

With `FC(F)(F)c1cc(CCN2CCNC[C@@H]2Cc2ccccc2)cc(C(F)(F)F)c1`, the AC40 is 17.8 µM.

In the case of `C=CCN(Cc1ccc(OC)c(OC)c1)C(=O)N1CCOCC1`, the AC40 was > 35 µM (inactive).

For `O=C(Nc1ccc(Cl)c(Cl)c1)Nc1nc(-c2ccccc2)cs1`, the AC40 was 4.71 µM.

Consider `CCOC(=O)c1[nH]c2cc(OC)c(OC)cc2c1NC(=O)c1ccc2c(c1)OCO2`, for which the AC40 was 18.1 µM.

For the molecule `CCC(C)Sc1cccc(-c2nc3cnccn3c2NC2CCCCC2)c1` (centres undefined), the AC40 was 5.37 µM.

Consider `CCOC(=O)c1c(NC(=O)Cn2nc(C(F)(F)F)cc2C)sc(C)c1C`, for which the AC40 is 9.34 µM.

Turning to `COC(=O)C1=C(C)N(Cc2cccc(C(F)(F)F)c2)C(=NCc2ccc(OC)cc2)NC1c1cccc(Cl)c1` (centres undefined), the AC40 is 9.96 µM.

Regarding `COc1ccc(-c2nc(-c3cccnc3)no2)cc1OC`, the AC40 is > 35 µM (inactive).

Take `COc1ccccc1CCn1cnc(-c2cccc(F)c2)c1CC(C)C`: the AC40 is 11.3 µM.

`CCOc1cccc(-c2csc(C3COc4ccccc4O3)n2)c1` (centres undefined): the AC40 was 3.7 µM.

On to `O=C(CC1c2ccccc2Oc2ccccc21)Nc1ccccc1C(F)(F)F`, for which the AC40 is 6.13 µM.

`CCC(=O)Nc1ccc(NC(=S)NC(=O)c2oc3ccccc3c2C)cc1`: the AC40 is 5.76 µM.

With `COc1ccc(CC(N)c2csc(NC(=O)Nc3ccc(C(C)C)cc3)n2)cc1` (centres undefined), the AC40 is 6.81 µM.

For `CCCCn1c(N2CCCC2)nc2c1c(=O)[nH]c(=O)n2C`, the AC40 was 5.57 µM.

For `COc1ccc(C(C)NCCC(c2ccc(OC(C)C)cc2)c2ccccc2OC)cc1` (centres undefined), the AC40 is 7.95 µM.

As to `O=c1c2cc(F)ccc2sn1-c1ccccc1Cl`, the AC40 is 1.85 µM.

In the case of `COc1ccc(-c2cc3ccccc3oc2=O)cc1NC(=S)NC(=O)c1ccc2c(c1)OCCO2`, the AC40 was 4.75 µM.

As to `Cc1cc(NC(=O)c2ccccc2F)n(-c2nc3ccccc3[nH]2)n1`, the AC40 was 5.86 µM.

As to `CCN=C1NC(c2ccc(C(F)(F)F)cc2)C(C(=O)OC)=C(C)N1Cc1cccc(C(F)(F)F)c1` (centres undefined), the AC40 was 14.3 µM.

In the case of `CCOC(=O)c1c(-n2cnnn2)sc2c1CCCC2`, the AC40 was 14.6 µM.

In the case of `COc1ccc(C2=NN(C(C)=O)C(c3cccs3)C2)cc1OC` (centres undefined), the AC40 is 8.92 µM.

On to `COC(=O)c1ccc(C2C(Oc3ccc(OC)cc3)C(=O)N2CCc2ccc(F)cc2)cc1` (centres undefined), for which the AC40 was 12.6 µM.

On to `COc1ccc(C(=O)NCC(=O)OCC(=O)Nc2ccc(C)c(S(=O)(=O)N(C)C)c2)cc1OC`, for which the AC40 was 1.67 µM.

Regarding `COc1ccccc1C(=O)NC(=S)NC12CC3CC(CC(C3)C1)C2`, the AC40 was 7.9 µM.

As to `COc1ccc(C2=Nn3c(nnc3-c3ccccc3F)SC2)cc1OCC1CC1`, the AC40 was 1.23 µM.

Take `Fc1ccc(-c2ccc(C3[C@@H]4CN(Cc5ccccc5)C[C@H]3N4)cc2)cc1` (some centres undefined): the AC40 was 6.57 µM.

Regarding `C[C@H]1CN([C@@H](C)CO)S(=O)(=O)c2ccc(C#Cc3ccccc3)cc2O[C@@H]1CN(C)C(=O)CN(C)C`, the AC40 is 28 µM.

For `CN(C(=O)c1ccc2c(c1)SC1=NS(=O)(=O)CCN12)C(c1ccccc1)c1ccccc1`, the AC40 was 0.518 µM.

In the case of `CCCCc1c(-c2cccc(OC)c2)ncn1CCc1ccccc1OC`, the AC40 is 11.8 µM.

For the molecule `CC(=O)N(/N=C/c1cccc(C)c1)c1nc(-c2ccc(Br)cc2)cs1`, the AC40 is 5.72 µM.

On to `O=C(NC1CCCCC1)C(c1ccc(F)cc1)N(Cc1ccccc1)C(=O)CN1C(=O)c2ccccc2S1(=O)=O` (centres undefined), for which the AC40 is 27.1 µM.

Consider `CC1(C(=O)NS(=O)(=O)c2ccc(Cl)s2)CCN1C(=O)C1(c2ccc(Cl)cc2)CCC1` (centres undefined), for which the AC40 was > 35 µM (inactive).

Turning to `Cc1ccc(CNc2nc(NCc3ccccc3)nc3ccsc23)c(C)c1`, the AC40 was 19.2 µM.

For `NC(=O)COC(=O)c1ccccc1Oc1ccccc1`, the AC40 was 6.24 µM.

As for `COc1ccccc1NC(=O)N1CCCCN2[C@@H](CO)[C@@H](c3ccc(C#CC4CCCC4)cc3)[C@@H]2C1`, the AC40 was 16.5 µM.

Regarding `CC(C)CC#Cc1ccc2c(c1)O[C@@H](CN(C)Cc1ccccc1)[C@H](C)CN([C@H](C)CO)S2(=O)=O`, the AC40 was 9.77 µM.

`N#CCc1nn(-c2ccccc2)c2ncnc(N)c12`: the AC40 is 11.9 µM.

In the case of `O=C(COc1ccc2c(c1)OCO2)Nc1ccc2c(c1)oc1ccccc12`, the AC40 is 16.4 µM.

Turning to `CCc1nc(N)nc2c1C(=O)CC(C)(C)C2`, the AC40 was > 35 µM (inactive).

`CC(C)(c1ccccc1)c1ccc(OCC(O)CNC2CCN(Cc3ccccc3)CC2)cc1` (centres undefined): the AC40 is 11.8 µM.

As for `CCCCCCn1c(N(CC)CC)nc2c1c(=O)[nH]c(=O)n2C`, the AC40 is 23.8 µM.

Take `O=C(Nc1ccc(C(F)(F)F)cc1)N1C[C@@H]2N[C@H](C1)C2c1ccc(/C=C/c2ccccc2)cc1` (some centres undefined): the AC40 was 8.24 µM and 1.64 µM.

As to `Cc1ccc(-c2n[nH]c(=S)n2/N=C/c2c(C)nn(-c3ccccc3)c2C)cc1`, the AC40 is 11.2 µM.

As for `Cc1ccc(NC(=O)CNC(=O)c2sc3ccccc3c2Cl)nc1`, the AC40 was 14.3 µM.

As for `CC(C)(C)c1nc2ccc(Cl)cn2c1CC1CCCCC1`, the AC40 is 16 µM.

`Fc1ccccc1-c1ccc(C2[C@@H]3CN(Cc4ccccc4)C[C@H]2N3)cc1` (some centres undefined): the AC40 is 7.05 µM.

Consider `N#Cc1cccc(Oc2ccc(-c3cnc4ccccc4n3)cc2)c1C#N`, for which the AC40 is 13.1 µM.

Regarding `O=C(Nc1ccc2c(c1)OCO2)N1C[C@@H]2N[C@H](C1)C2c1ccc(C=Cc2ccccc2)cc1` (some centres undefined), the AC40 was 9.05 µM.

Take `O=C(N/N=C/c1ccco1)c1cc(-c2ccc3ccccc3c2)n[nH]1`: the AC40 was 4.19 µM.

As for `CC(C)(C)OC(=O)N[C@@H](Cc1ccccc1)c1nnc(S(=O)(=O)Cc2ccccc2)o1`, the AC40 is 3.69 µM.

For the molecule `O=C(NCCC1=CCCCC1)C(=O)NCC(c1ccco1)N1CCN(c2ccccc2)CC1` (centres undefined), the AC40 is 6.33 µM.

`COc1ccc(C2=NN(c3ccc(C(=O)O)cc3)C(c3ccc(OC)c(OC)c3)C2)cc1` (centres undefined): the AC40 is 4.29 µM.

Turning to `COc1cc2c(cc1OC)[C@H](C)N(C(=O)NCc1ccccc1)CC2`, the AC40 is 8 µM.
